Experiment [1] addresses T1, p300TAZ2 (TAZ2 domain of p300) (Homo sapiens, UniProt Q09472, A1723W).
T1 construct: Human p300TAZ2 [aa 1722–1812, pGEX-4T-1 vector with an additional tobacco etch virus (TEV) cleavage site]; GST (pGEX-4T-1, TEV site) (N, cleaved yes); made in house; host or cells: Escherichia coli Rosetta-2 (DE3) pLysS
T1 sequence (Q09472 1722-1812 A1723W): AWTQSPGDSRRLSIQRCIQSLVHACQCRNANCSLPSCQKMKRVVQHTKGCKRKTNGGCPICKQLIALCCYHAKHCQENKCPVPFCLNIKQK
Briefly: Microscale thermophoresis (MST) binding of p300TAZ2-His to EZH2 TAD peptides. The note with it: direct binding, p300TAZ2-6×His labeled RED-tris-NTA, 10 nM; 25 mM Tris pH 7.5, 150 mM NaCl, 2.5 mM DTT; 1:1 stoichiometry; average ± SD of three (EZH2TAD2, EZH2TAD3) or four (EZH2TAD1) independent measurements.
Description: After induction with isopropyl b-D-1-thiogalactopyranoside (IPTG), harvesting, and lysis in buffer [50 mM Tris pH 7.0, 1 M NaCl, 5 mM dithiothreitol (DTT), 1 mM phenylmethanesulfonylfluoride (PMSF) and DNase] by sonication, the proteins were purified on glutathione agarose beads (Pierce) and eluted with buffer containing reduced L-glutathione (Fisher). The GST tag was either cleaved with TEV protease overnight at 22°C or kept intact during subsequent purification steps. Both GST- and His-tagged proteins, as well as untagged p300TAZ2, were further purified by cation exchange (HiTrap SP HP, Cytiva) or heparin affinity chromatography (HiTrap Heparin HP, Cytiva).
MST experiments were carried out on a Monolith NT.115 instrument (NanoTemper). All experiments were performed using SEC-purified p300TAZ2-6×His protein in 25 mM Tris pH 7.5 buffer, 150 mM NaCl, and 2.5 mM DTT. p300TAZ2-6×His was labeled using a His-Tag Labeling Kit RED-tris-NTA (2nd Generation, NanoTemper) and kept constant at 10 nM. Dissociation constants were determined using a direct binding assay in which peptide was varied in concentration by serial dilution of discrete samples. The measurements were performed at 50% LED and medium MST power with 3-s pre-laser time, 20-s laser on-time, and 1-s off-time.

For experiment [2], the system named is FLAG-HA-tagged p300 catalytic core (aa 1035–1830 of p300). Briefly: Histone acetyltransferase (HAT) assay, Western blot, recombinant nucleosome substrate. Format: biochemical. The note with it: 1 μg p300 core, 2.5, 5 or 10 μg GST-tagged TADs, 1 μg nucleosome, 100 mM acetyl-CoA, 50 mM Tris-HCl pH 8.0, 30°C, 15 min. As for the experimental part: Histone acetyltransferase assay
For HAT assays, FLAG-HA-tagged p300 core (aa 1035–1830 of p300) in a pCDH vector was expressed in 293 T cells for two days. Cells were lysed in lysis buffer (50 mM Tris-HCl pH 7.5, 300 mM NaCl, 1.5 mM MgCl2, 1 mM EDTA, 1% Triton100, 10% glycerol, 1 mM PMSF, and protease inhibitors) and sonicated. Cell lysates were incubated with anti-Flag M2 beads (Sigma) at 4° for 4 h. The beads were then washed three times with buffer (50 mM Tris-HCl pH 7.5, 500 mM NaCl, 1.5 mM MgCl2, 0.2 mM EDTA, 0.1% NP40, 10% glycerol, and 1 mM PMSF), and the protein was eluted with elution buffer (50 mM Tris-HCl pH 7.5, 300 mM NaCl, 1 mM DTT, 10% glycerol, and 0.4 mg/ml Flag peptide). […]
Purified FLAG-HA-tagged p300 catalytic core fragment (1 μg) was incubated with increasing amounts of GST-tagged EZH2TADs and GST-tagged EZH1TADs (2.5, 5, or 10 μg) and the nucleosome (1 μg) in HAT reaction buffer (50 mM Tris-HCl pH 8.0, 100 mM NaCl, 10% glycerol, 1 mM DTT, […], and 1× cOmplete EDTA-free Protease Inhibitor Cocktail) at 30°C for 15 min. Reactions were stopped by boiling at 95°C for 5 min in 2×SDS loading buffer, and samples were analyzed by SDS-PAGE and Western blot. […]

In the next experiment the test system is GST-p300TAZ2. Put plainly: Mass photometry (MP) of GST-p300TAZ2 with EZH2TAD constructs. In kind it is binding, human. The procedure: [37]. […] After induction with isopropyl b-D-1-thiogalactopyranoside (IPTG), harvesting, and lysis in buffer [50 mM Tris pH 7.0, 1 M NaCl, 5 mM dithiothreitol (DTT), 1 mM phenylmethanesulfonylfluoride (PMSF) and DNase] by sonication, the proteins were purified on glutathione agarose beads (Pierce) and eluted with buffer containing reduced L-glutathione (Fisher). The GST tag was either cleaved with TEV protease overnight at 22°C or kept intact during subsequent purification steps. […] The EZH2TAD1 ([…]) construct was generated by deletion using Q5 Hot Start High-Fidelity kit (NEB) and confirmed by DNA sequencing. Both constructs were expressed in E. coli Rosetta-2 (DE3) pLysS cells grown in LB media and induced at an OD600 of 0.6-0.8 with 1 mM IPTG for 16 h at 16°C. Cells were harvested by centrifugation, suspended in buffer (50 mM Tris pH 7.5, 500 mM NaCl, 1% CHAPS, 2 mM DTT, 1 mM PMSF, Roche cOmplete Protease Inhibitor Cocktail, and DNase), and lysed by sonication. […] When necessary, EZH2TAD constructs were further purified using a Superdex 200 Increase 10/300 GL column (Cytiva) with monitoring at 205 and 280 nm. […] To overcome the minimum size limit, a GST-fusion construct was used for one of the components in each sample. […] Ten microliter of each sample was loaded into the sample wells of the silicon cassettes assembled onto MassGlass UC coverslips (Refeyn, Ltd.). […]

In a further experiment the test system is p300TAZ2. Briefly: Mass photometry (MP) of GST-EZH2TAD1 with p300TAZ2. In kind it is binding, human. As for the experimental part:
[37]. Briefly, both ^15N-labeled and unlabeled constructs were expressed in Escherichia coli Rosetta-2 (DE3) pLysS cells grown in either M9 minimal media or TB, both supplemented with 50-150 μM ZnCl2. After induction with isopropyl b-D-1-thiogalactopyranoside (IPTG), harvesting, and lysis in buffer [50 mM Tris pH 7.0, 1 M NaCl, 5 mM dithiothreitol (DTT), 1 mM phenylmethanesulfonylfluoride (PMSF) and DNase] by sonication, the proteins were purified on glutathione agarose beads (Pierce) and eluted with buffer containing reduced L-glutathione (Fisher). The GST tag was either cleaved with TEV protease overnight at 22°C or kept intact during subsequent purification steps. […] Human EZH2[…]3 ([…]) construct with a C-terminal 6×His tag was cloned into a pGEX-6P-1 vector (GenScript). The EZH2TAD1 ([…]) construct was generated by deletion using Q5 Hot Start High-Fidelity kit (NEB) and confirmed by DNA sequencing. Both constructs were expressed in E. coli Rosetta-2 (DE3) pLysS cells grown in LB media and induced at an OD600 of 0.6-0.8 with 1 mM IPTG for 16 h at 16°C. Cells were harvested by centrifugation, suspended in buffer (50 mM Tris pH 7.5, 500 mM NaCl, 1% CHAPS, 2 mM DTT, 1 mM PMSF, Roche cOmplete Protease Inhibitor Cocktail, and DNase), and lysed by sonication. […] When necessary, EZH2TAD constructs were further purified using a Superdex 200 Increase 10/300 GL column (Cytiva) with monitoring at 205 and 280 nm. Mass Photometry […] To overcome the minimum size limit, a GST-fusion construct was used for one of the components in each sample. […] Ten microliter of each sample was loaded into the sample wells of the silicon cassettes assembled onto MassGlass UC coverslips (Refeyn, Ltd.). Measurements were performed at room temperature in buffer (50 mM Tris pH 7.5, 150 mM NaCl, 5 mM DTT). β-amylase was used as calibration standard (56 kDa, 112 kDa, and 224 kDa). After the focus was set and locked, movies were captured for 60 s (2800 frames) using AcquireMP software (Refeyn Ltd). Data were processed using DiscoverMP (Refeyn Ltd).

No end group written: not given here.

Consider DGTFIEELIKNYD [EZH2TAD1], for which, in experiment [1], binding was put at a Kd of 530 ± 80 nM. Consider “EZH2 WT: GST-tagged EZH2TAD1-TAD2-TAD3 (aa 119–267)”, for which the “H3K18 acetylation by p300 core” value in experiment [2] (H3K18ac Western blot) is “dose-dependent increase in H3K18 and H3K27 acetylation”. The “H3K27 acetylation by p300 core” value in experiment [2] (H3K27ac Western blot) was “dose-dependent increase in H3K18 and H3K27 acetylation”. Take “EZH2TAD1-TAD2-TAD3: recombinant human EZH2 aa 142–231 construct with a C-terminal 6×His tag, used in mass photometry”: in the experiment on GST-p300TAZ2 (20 nM GST-p300TAZ2 + 1 μM EZH2TAD1-TAD2-TAD3, room temperature, 50 mM Tris pH 7.5, 150 mM NaCl, 5 mM DTT), the “MP peak of complex with GST-p300TAZ2” value is ~ 224 kDa. For the same substance, in the experiment on GST-p300TAZ2 (from MP peak, 20 nM GST-p300TAZ2, EZH2TAD1-TAD2 5 μM or EZH2TAD1-TAD2-TAD3 1 μM), the “stoichiometry of the complex with GST-p300TAZ2” value was “six molecules of GST-p300TAZ2 and one molecule of EZH2TAD1-TAD2-TAD3”. With “GST-EZH2TAD1: recombinant GST-tagged EZH2TAD1 (aa 142–160) construct (DGTFIEELIKNYDGKVHGD-His6; also: GST tag, end not given here)”, in the experiment with p300TAZ2 (20 nM GST-EZH2TAD1, 0.1 μM p300TAZ2), the “shift of the MP peak upon addition of p300TAZ2” value is reported as ~ 14 kDa. Besides, the “oligomeric state in the apo-state” value in the experiment with p300TAZ2 (20 nM GST-EZH2TAD1 alone) is on record as “formed a dimer in the apo-state”. Moreover, in the experiment on p300TAZ2 (20 nM GST-EZH2TAD1 alone, room temperature, 50 mM Tris pH 7.5, 150 mM NaCl, 5 mM DTT), the “MP peak, apo GST-EZH2TAD1” value is recorded as ~ 70 kDa. Further, the “oligomeric state / stoichiometry of GST-EZH2TAD1 complexes” value in the experiment with p300TAZ2 (20 nM GST-EZH2TAD1 with 0.1 μM p300TAZ2) was “dimeric GST-EZH2TAD1 bound by one molecule of p300TAZ2 and by two molecules of p300TAZ2”. With NDEIFVELVNALGQYNDDD [EZH2TAD2], binding in experiment [1] was characterised by a dissociation constant (Kd) of 310 nM. In experiment [1], SDKIFEAISSMF [EZH2TAD3] had a dissociation constant (Kd) of 520 ± 60 nM.

Values taken from paper PMC12312386, “Multiple transactivation domains of EZH2 bind to the TAZ2 domain of p300 and stimulate the acetyltransferase function of p300” (Biochemical Journal, 2025).
